{"source": "patent US20230391727A1", "about": "“ANALOGUES OF PENTAMIDINE AND METHODS FOR TREATING INFECTIONS” (Auransa Inc., priority 2020, published 2023)", "assay_in_all_cases": "Anti-fungal MIC assay", "assay_type_in_all_cases": "cell-based", "key": {"Candida auris DI17-48": {"tested_on": "Candida auris DI17-48", "details": "Candidozyma auris", "summary_of_the_method": "(§1)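 First, DMSO stocks (6400 μg/ml, 100× highest test level) were diluted to 2× in RPMI-1640 with MOPS at pH 7.0. Trays were then held at 35° C without agitation.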"}, "Candida krusei ATCC6258": {"tested_on": "Candida krusei ATCC6258", "details": "Pichia kudriavzevii", "summary_of_the_method": "as §1"}, "[1]": {"tested_on": "Cryptococcus neoformans H99", "summary_of_the_method": "as §1"}, "Candida albicans SC5314": {"tested_on": "Candida albicans SC5314", "summary_of_the_method": "as §1"}, "[2]": {"tested_on": "Candida parapsilosis ATCC22019", "details": "Lodderomyces parapsilosis", "summary_of_the_method": "as §1"}, "[3]": {"tested_on": "Cryptococcus neoformans USC 1597", "summary_of_the_method": "as §1"}, "[4]": {"tested_on": "Candida guilliermondii Cgui2", "details": "Meyerozyma guilliermondii", "summary_of_the_method": "as §1"}, "[5]": {"tested_on": "Candida guilliermondii Cgui3", "details": "Meyerozyma guilliermondii", "summary_of_the_method": "as §1"}, "Candida parapsilosis CP3": {"tested_on": "Candida parapsilosis CP3", "details": "Lodderomyces parapsilosis", "summary_of_the_method": "as §1"}, "Candida glabrata CG3": {"tested_on": "Candida glabrata CG3", "details": "Nakaseomyces glabratus", "summary_of_the_method": "as §1"}, "Candida albicans CA5": {"tested_on": "Candida albicans CA5", "summary_of_the_method": "as §1"}, "[6]": {"details": "read-out: MIC, 50% growth inhibition"}, "[7]": {"details": "read-out: MIC, 100% growth inhibition"}}, "note": "Where two headings read alike, the source gives them in different places."}
{"smiles": "N=C(N)c1ccc(CC[C@H]2CCC[C@@H](CCc3ccc(C(=N)N)cc3)C2)cc1", "note": "[Compound 3, 4,4′-(2,2′-((1R,3S)-cyclohexane-1,3-diyl)bis(ethane-2,1-diyl))dibenzimidamide]", "values": [{"measurement": "MIC", "setting": "Candida auris DI17-48; DI1748, read-out: MIC, 50% growth inhibition", "result": 2, "unit": "mg/L"}, {"measurement": "MIC", "setting": "Candida auris DI17-48; DI1748, read-out: MIC, 100% growth inhibition", "result": 4, "unit": "mg/L"}, {"measurement": "MIC", "setting": "Candida krusei ATCC6258; ATCC6258, C. krusei ATCC 6258, second round (Table 6), read-out: MIC, 50% growth inhibition", "result": 0.5, "unit": "mg/L"}, {"measurement": "MIC", "setting": "Candida krusei ATCC6258; ATCC6258, Candida krusei ATCC6258, first round (Table 5), read-out: MIC, 50% growth inhibition", "result": 8, "unit": "mg/L"}, {"measurement": "MIC", "setting": "Candida krusei ATCC6258; ATCC6258, read-out: MIC, 100% growth inhibition, C. krusei ATCC 6258, second round (Table 6)", "result": 1, "unit": "mg/L"}, {"measurement": "MIC", "setting": "Candida krusei ATCC6258; ATCC6258, read-out: MIC, 100% growth inhibition, Candida krusei ATCC6258, first round (Table 5)", "result": 8, "unit": "mg/L"}, {"measurement": "MIC", "setting": "[1]; [6]", "result": 0.5, "unit": "mg/L"}, {"measurement": "MIC", "setting": "[1]; [7]", "result": 0.5, "unit": "mg/L"}, {"measurement": "MIC", "setting": "Candida albicans SC5314; [6]", "result": 1, "unit": "mg/L"}, {"measurement": "MIC", "setting": "Candida albicans SC5314; [7]", "result": 1, "unit": "mg/L"}, {"measurement": "MIC", "setting": "[2]; ATCC22019, C. parapsilosis ATCC 22019, second round (Table 6), read-out: MIC, 50% growth inhibition", "result": 0.25, "unit": "mg/L"}, {"measurement": "MIC", "setting": "[2]; ATCC22019, Candida parapsilosis ATCC22019, first round (Table 5), read-out: MIC, 50% growth inhibition", "result": 0.5, "unit": "mg/L"}, {"measurement": "MIC", "setting": "[2]; ATCC22019, read-out: MIC, 100% growth inhibition, C. parapsilosis ATCC 22019, second round (Table 6)", "result": 0.5, "unit": "mg/L"}, {"measurement": "MIC", "setting": "[2]; ATCC22019, read-out: MIC, 100% growth inhibition, Candida parapsilosis ATCC22019, first round (Table 5)", "result": 1, "unit": "mg/L"}, {"measurement": "MIC", "setting": "[3]; USC1597, read-out: MIC, 50% growth inhibition", "result": 0.5, "unit": "mg/L"}, {"measurement": "MIC", "setting": "[3]; USC1597, read-out: MIC, 100% growth inhibition", "result": 0.5, "unit": "mg/L"}, {"measurement": "MIC", "setting": "[4]; [6]", "result": 2, "unit": "mg/L"}, {"measurement": "MIC", "setting": "[4]; [7]", "result": 2, "unit": "mg/L"}, {"measurement": "MIC", "setting": "[5]; [6]", "result": 2, "unit": "mg/L"}, {"measurement": "MIC", "setting": "[5]; [7]", "result": 2, "unit": "mg/L"}, {"measurement": "MIC", "setting": "Candida parapsilosis CP3; [6]", "result": 2, "unit": "mg/L"}, {"measurement": "MIC", "setting": "Candida parapsilosis CP3; [7]", "result": 8, "unit": "mg/L"}, {"measurement": "MIC", "setting": "Candida glabrata CG3; [6]", "result": 0.5, "unit": "mg/L"}, {"measurement": "MIC", "setting": "Candida glabrata CG3; [7]", "result": 1, "unit": "mg/L"}, {"measurement": "MIC", "setting": "Candida albicans CA5; [6]", "result": 0.25, "unit": "mg/L"}, {"measurement": "MIC", "setting": "Candida albicans CA5; [7]", "result": 0.5, "unit": "mg/L"}]}
